# Tested on: pediatric subjects with acute hypoxemic respiratory failure (AHRF)
# Test: Pediatric AHRF study: respiratory values (oxygen status, HFOV, CMV, ABG)
# Format: in vivo, human
# Conditions: 5 ppm
# Method: Standardized ventilatory management and weaning procedures were used. Ventilatory management was used based on an “open lung approach” using positive end-expiratory pressure (PEEP) to increase lung volume and limiting tidal volumes to reduce plateau pressures. Subjects received nitric oxide for inhalation at 5 ppm or placebo (100% Grade 5 nitrogen gas) into the inspiratory limb of the ventilator circuit using a blinded version of the INOvent® delivery system. The subjects were treated until Day 28 or extubation, whichever occurred first. Subjects were assessed daily using a spontaneous breathing trial, according to the institution's standard of care. Arterial blood gases (ABG), ventilator settings, methemoglobin, oxygenation index, systolic blood pressure, diastolic blood pressure, Pediatric Risk of Mortality (PRISM) III score, and subject positioning (prone or supine) were performed/recorded at specified times during the study. Selected centers also performed plasma cytokine assays, bronchoalveolar lavage fluid (BALF) assays, and a 6-month follow-up assessment.
# The following assessments were made at baseline: arterial blood gases, ventilator settings, methemoglobin, prone position, PRISM III score, oxygenation index, systolic and diastolic blood pressure, bronchoalveolar lavage fluid assay and plasma cytokine.
# The following assessments were made at 4 hours±1 hour after the start of therapy: arterial blood gases, ventilator settings and methemoglobin.
# The following assessments were made at 12 hours±2 hours after the start of therapy: arterial blood gases and ventilator settings.
# The following assessments were made at 24 hours±2 hours after the start of therapy: arterial blood gases, ventilator settings, methemoglobin, systolic and diastolic blood pressure and plasma cytokine.
# Oxygen status was determined at screening only. Respiratory values in the HFOV category were obtained at baseline, 4 hours, 12 hours, and 24 hours. Respiratory values in the categories conventional mechanical ventilation [CMV] and ABG were obtained at baseline, 4 hours, 12 hours, 24 hours, and at extubation.
smiles,measurement,setting,value
"[N]=O [Nitric Oxide, nitric oxide]","ABG BE, Mean (SD)",4 Hours,0.7 (4.1) mEq/L
same,"ABG BE, Median",4 Hours,1.0 mEq/L
same,"ABG HCO3, Mean (SD)",4 Hours,25.7 (3.9) mEq/L
same,"ABG HCO3, Median",4 Hours,25.8 mEq/L
same,"ABG PaCO2, Mean (SD)",4 Hours,46.0 (18.2) mmHg
same,"ABG PaCO2, Median",4 Hours,43.0 mmHg
same,"ABG PaO2, Mean (SD)",4 Hours,83.2 (22.6) mmHg
same,"ABG PaO2, Median",4 Hours,78.5 mmHg
same,"ABG SaO2, Mean (SD)",4 Hours,95.7 (2.9) %
same,"ABG SaO2, Median",4 Hours,95.9%
same,"ABG pH, Mean (SD)",4 Hours,7.4 (0.1)
same,"ABG pH, Median",4 Hours,7.4
same,"ABG BE, Mean (SD)",12 Hours,1.1 (4.1) mEq/L
same,"ABG BE, Median",12 Hours,2.0 mEq/L
same,"ABG HCO2, Mean (SD)",12 Hours,26.7 (4.1) mEq/L
same,"ABG HCO2, Median",12 Hours,27.0 mEq/L
same,"ABG PaCO2, Mean (SD)",12 Hours,47.4 (8.3) mmHg
same,"ABG PaCO2, Median",12 Hours,48.4 mmHg
same,"ABG PaO2, Mean (SD)",12 Hours,68.7 (20.9) mmHg
same,"ABG PaO2, Median",12 Hours,68.0 mmHg
same,"ABG SaO2, Mean (SD)",12 Hours,93.1 (3.2) %
same,"ABG SaO2, Median",12 Hours,94.0%
same,"ABG pH, Mean (SD)",12 Hours,7.4 (0.1)
same,"ABG pH, Median",12 Hours,7.4
same,"ABG BE, Mean (SD)",24 Hours,2.3 (3.8) mEq/L
same,"ABG BE, Median",24 Hours,2.8 mEq/L
same,"ABG HCO3, Mean (SD)",24 Hours,30.6 (14.1) mEq/L
same,"ABG HCO3, Median",24 Hours,28.0 mEq/L
same,"ABG PaCO2, Mean (SD)",24 Hours,47.2 (11.5) mmHg
same,"ABG PaCO2, Median",24 Hours,45.4 mmHg
same,"ABG PaO2, Mean (SD)",24 Hours,71.4 (16.8) mmHg
same,"ABG PaO2, Median",24 Hours,69.0 mmHg
same,"ABG SaO2, Mean (SD)",24 Hours,92.2 (5.4) %
same,"ABG SaO2, Median",24 Hours,93.0%
same,"ABG pH, Mean (SD)",24 Hours,7.4 (0.1)
same,"ABG pH, Median",24 Hours,7.4
same,"ABG BE, Mean (SD)",Baseline,0.2 (5.3) mEq/L
same,"ABG BE, Median",Baseline,0.4 mEq/L
same,"ABG HCO3, Mean (SD)",Baseline,25.6 (5.0) mEq/L
same,"ABG HCO3, Median",Baseline,26.0 mEq/L
same,"ABG PaCO2, Mean (SD)",Baseline,45.3 (11.1) mmHg
same,"ABG PaCO2, Median",Baseline,46.5 mmHg
same,"ABG PaO2, Mean (SD)",Baseline,67.5 (13.1) mmHg
same,"ABG PaO2, Median",Baseline,63.0 mmHg
same,"ABG SaO2, Mean (SD)",Baseline,92.8 (3.5) %
same,"ABG SaO2, Median",Baseline,92.0%
same,"ABG pH, Mean (SD)",Baseline,7.4 (0.1)
same,"ABG pH, Median",Baseline,7.4
same,"ABG BE, Mean (SD)",Extubation Criteria,5.0 (2.6) mEq/L
same,"ABG BE, Median",Extubation Criteria,4.0 mEq/L
same,"ABG HCO3, Mean (SD)",Extubation Criteria,30.2 (2.8) mEq/L
same,"ABG HCO3, Median",Extubation Criteria,31.0 mEq/L
same,"ABG PaCO2, Mean (SD)",Extubation Criteria,47.5 (8.4) mmHg
same,"ABG PaCO2, Median",Extubation Criteria,44.0 mmHg
same,"ABG PaO2, Mean (SD)",Extubation Criteria,91.8 (42.3) mmHg
same,"ABG PaO2, Median",Extubation Criteria,78.0 mmHg
same,"ABG SaO2, Mean (SD)",Extubation Criteria,94.6 (5.9) %
same,"ABG SaO2, Median",Extubation Criteria,96.0%
same,"ABG pH, Mean (SD)",Extubation Criteria,7.4 (0.1)
same,"ABG pH, Median",Extubation Criteria,7.4
same,"Oxygen Status Oxygen Index 1, Mean (SD)",Screening,22.2 (8.2)
same,"Oxygen Status Oxygen Index 1, Median",Screening,21.3
same,"Oxygen Status Oxygen Index 2, Mean (SD)",Screening,22.7 (7.9)
same,"Oxygen Status Oxygen Index 2, Median",Screening,23.0

# Source: patent publication US10201564B2, “Methods of using inhaled nitric oxide gas for treatment of acute respiratory distress syndrome in children” (Mallinckrodt Hospital Products IP Limited, priority 2014, dated 2019)
